Source: patent publication US11261152B2, “Inhibitors of the N-terminal domain of the androgen receptor” (The Regents of the University of California, priority 2017, dated 2022)

The compounds below were run on AR transcriptional activity (MMTV reporter) (assay: MMTV reporter assay). Conditions: Table 3 grade HIGH/MED/LOW, grades not defined.
Format: cell-based

SMILES | MMTV
CN(CCC(=O)/C(=C\c1ccc(Cl)cc1)c1ccccc1)Cc1ccccc1 [JN001, (Z)-5-(Benzyl(methyl)amino)-1-(4-chlorophenyl)-2-phenylpent-1-en-3-one] | LOW
CN(CCC(=O)/C(=C\c1ccc(Cl)cc1)c1ccccc1)Cc1ccccc1.Cl [JN002, (Z)-5-(Benzyl(methyl)amino)-1-(4-chlorophenyl)-2-phenylpent-1-en-3-one hydrochloride] | LOW
C=CC(=O)/C(=C\c1ccc(Cl)cc1)c1ccccc1 [JN004, (Z)-1-(4-Chlorophenyl)-2-phenylpenta-1,4-dien-3-one] | LOW
C=CC(O)/C(=C/c1ccc(Cl)cc1)c1ccccc1 (stereo not shown) [JN005, (E)-1-(4-Chlorophenyl)-2-phenylpenta-1,4-dien-3-ol] | MED
Cl.O=C(CCN1CCCC1)/C(=C\c1ccc(Cl)cc1)c1ccccc1 [JN006] | LOW
CN(C)CCC(=O)/C(=C\c1ccc(Cl)cc1)c1ccccc1.Cl [JN007] | MED
CN1CCN(CCC(=O)/C(=C\c2ccc(Cl)cc2)c2ccccc2)CC1.Cl [JN009] | LOW
C=CC(O)/C(=C\c1ccc(Br)cc1)c1ccccc1 (stereo not shown) [JN010] | LOW
C=CC(O)/C(=C\c1ccc(F)cc1)c1ccccc1 (stereo not shown) [JN011] | MED
C=CC(O)/C(=C\c1ccc(C)cc1)c1ccccc1 (stereo not shown) [JN012] | LOW
C=CC(O)/C(=C/c1ccc(C)cc1)c1ccccc1 (stereo not shown) [JN013] | MED
C=CC(O)/C(=C\c1ccc(OC)cc1)c1ccccc1 (stereo not shown) [JN014] | MED
COc1ccc(/C=C(\C(=O)CCN(C)C)c2ccccc2)cc1.Cl [JN016] | HIGH
CC(C)CN(C/C(=C\c1ccc(Cl)cc1)C(=O)c1ccccc1)CC(C)C [JN035] | HIGH
O=C(/C(=C/c1ccc(Cl)cc1)CN1CCCCC1)c1ccccc1 [JN037] | MED
CN(C/C(=C\c1cccc(Br)c1)C(=O)c1ccccc1)Cc1ccccc1 [JN040] | HIGH
CN(C/C(=C\c1ccccc1Br)C(=O)c1ccccc1)Cc1ccccc1.Cl [JN041] | HIGH

SMILES | MMTV
CN(C/C(=C\c1cccc(Cl)c1Cl)C(=O)c1ccccc1)Cc1ccccc1.Cl [JN042] | HIGH
CN(C/C(=C\c1ccc(Cl)cc1Cl)C(=O)c1ccccc1)Cc1ccccc1.Cl [JN045] | HIGH
CN(C/C(=C\c1ccccc1Cl)C(=O)c1ccccc1)Cc1ccccc1.Cl [JN046] | HIGH
CN(C/C(=C\c1ccccc1)C(=O)c1ccccc1)Cc1ccccc1 [JN047] | HIGH
Cc1ccccc1/C=C(\CN(C)Cc1ccccc1)C(=O)c1ccccc1 [JN049] | HIGH
C=C(CN(C)Cc1ccccc1)C(=O)/C(=C\c1ccc(OC)cc1)c1ccccc1.Cl [JN056] | LOW
C=C(CN(C)Cc1ccccc1)C(=O)/C(=C\c1ccc(Cl)c(Cl)c1)c1ccccc1.Cl [JN058] | LOW
C=C(CN(C)Cc1ccccc1)C(=O)C(=Cc1ccco1)c1ccccc1.Cl [JN061] | LOW
C=C(CN(C)Cc1ccccc1)C(=O)/C(=C\c1ccccc1)c1ccccc1.Cl [JN063] | MED
C=C(CN(C)Cc1ccccc1)C(=O)/C(=C/c1ccc(C)cc1)c1ccccc1.Cl [JN066] | LOW
C=C(CN(C)Cc1ccccc1)C(=O)/C(=C\c1ccc(C)cc1)c1ccccc1.Cl [JN067] | LOW
C=C(CN(C)Cc1ccccc1)C(=O)/C(=C/c1cc(Cl)cc(Cl)c1)c1ccccc1.Cl [JN068] | LOW
C=C(CN(C)Cc1ccccc1)C(=O)/C(=C/c1cccc(F)c1)c1ccccc1.Cl [JN069] | MED
C=C(CN(C)Cc1ccccc1)C(=O)/C(=C\c1cccc(Br)c1)c1ccccc1.Cl [JN070] | MED
C=C(CN(C)Cc1ccccc1)C(=O)/C(=C/c1cccc(Br)c1)c1ccccc1.Cl [JN071] | LOW
C=C(CN(C)Cc1ccccc1)C(=O)/C(=C\c1cccc(C(F)(F)F)c1)c1ccccc1.Cl [JN072] | LOW
C=C(CN(C)Cc1ccccc1)C(=O)/C(=C/c1cccc(C(F)(F)F)c1)c1ccccc1.Cl [JN073] | LOW
